Reference: patent US10946027B2, “Tianeptine oxalate salts and polymorphs” (Tonix Pharma Holdings Limited, priority 2016, dated 2021)
Where two headings read alike, the source gives them in different places.

Structure (SMILES): CN1c2ccccc2C(NCCCCCCC(=O)O)c2ccc(Cl)cc2S1(=O)=O.O=C(O)C(=O)O (centres unmarked) [Tianeptine mono-oxalate Form A, Tianeptine Mono-Oxalate Form A]
- solid form stability (40-60° C., high humidity (75% RH)): started to convert into tianeptine hemi-oxalate Form A
- solid form stability (milled without water): stable
- solid form stability (stored at 25° C. and 60-75% RH): stable
- solid form stability (stored at 40-60° C. without humidity (RH≈0%)): stable
- solid form stability (water kneading): started to convert into tianeptine hemi-oxalate Form A
